Data from patent US12545639B2, “3-substituted phenylamidine compounds, preparation and use thereof” (PI INDUSTRIES LTD., priority 2019, dated 2026).

What was measured:
[1] = test system: Septoria lycopersici/Corynespora cassicola (CORYCA); test: Septoria lycopersici/Corynespora cassicola (CORYCA) (leaf spot of tomato) in vitro test, radial growth on potato dextrose agar; format: cell-based; details: 168 h, 300 ppm in potato dextrose agar, 25° C., 70% relative humidity, seven days, read-out: control compared to the untreated check (radial growth)
Colletotrichum capsici = Colletotrichum capsici (anthracnose) in vitro test, radial growth on potato dextrose agar; format: cell-based; details: Colletotrichum truncatum, 168 h; 300 ppm in potato dextrose agar; 25° C., 60% relative humidity, seven days; read-out: control compared to the untreated check (radial growth)
Botrytis cinerea = Botrytis cinerea (gray mold) in vitro test, radial growth on potato dextrose agar; format: cell-based; details: 168 h, 300 ppm in potato dextrose agar, 22° C., 90% relative humidity, seven days, read-out: control compared to the untreated check (radial growth)
Alternaria solani = Alternaria solani (early blight of tomato/potato) in vitro test, radial growth on potato dextrose agar; format: cell-based; details: 168 h, 300 ppm in potato dextrose agar, 25° C., 60% relative humidity, seven days, read-out: control compared to the untreated check (radial growth)
Pyricularia oryzae [2] = test: microbe, parasite or virus in culture; format: cell-based; details: 168 h, read-out: control compared to the untreated check (radial growth)
Rhizoctonia solani = Rhizoctonia solani (rice sheath blight/potato black scurf) in vitro test, radial growth on potato dextrose agar; format: cell-based; details: 168 h, 300 ppm in potato dextrose agar, 25° C., 60% relative humidity, seven days, read-out: control compared to the untreated check (radial growth)
Pyricularia oryzae [3] = test: whole plant or invertebrate; format: in vivo, Pyricularia oryzae on rice; details: read-out: Efficacy (% control), disease severity compared to the untreated check
Phakopsora pachyrhizi = Phakopsora pachyrhizi test in soybean, preventive, in vivo on plants; details: in Glycine max, read-out: Efficacy (% control), disease severity compared to the untreated check
Fusarium culmorum = Fusarium culmorum (foot rot of cereals) in vitro test, radial growth on potato dextrose agar; format: cell-based; details: 168 h, 300 ppm in potato dextrose agar, 25° C., 60% relative humidity, seven days, read-out: control compared to the untreated check (radial growth)
Summary of the method: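 Compound in 0.3% DMSO mixed into potato dextrose agar, plates seeded with a 5 mm mycelial disc from an actively growing virulent culture. After seven days at 25° C and 60% relative humidity, radial growth was measured against untreated control.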

CCN(C)C=Nc1cc(C)cc(Cc2ccccc2OC(F)(F)F)c1Cl [Compound 50, N′-(2-chloro-5-methyl-3-(2-(trifluoromethoxy)benzyl)phenyl)-N-ethyl-N-methylformimidamide]
≥ 70%: inhibition of growth at 300 ppm [1] | inhibition of growth at 300 ppm (Colletotrichum capsici) | inhibition of growth at 300 ppm (Botrytis cinerea) | inhibition of growth at 300 ppm (Alternaria solani) | inhibition of growth at 300 ppm (Pyricularia oryzae [2]) | inhibition of growth at 300 ppm (Rhizoctonia solani) | pest or weed control at 500 ppm (Pyricularia oryzae [3]) | pest or weed control at 500 ppm (Phakopsora pachyrhizi)

CCN(C)C=Nc1cc(C)cc(Cc2ccc(OC(F)(F)F)cc2)c1Cl [Compound 52, N′-(2-chloro-5-methyl-3-(4-(trifluoromethoxy)benzyl)phenyl)-N-ethyl-N-methylformimidamide]
≥ 70%: inhibition of growth at 300 ppm [1] | inhibition of growth at 300 ppm (Fusarium culmorum) | inhibition of growth at 300 ppm (Botrytis cinerea) | inhibition of growth at 300 ppm (Alternaria solani) | inhibition of growth at 300 ppm (Pyricularia oryzae [2]) | inhibition of growth at 300 ppm (Rhizoctonia solani) | pest or weed control at 500 ppm (Pyricularia oryzae [3]) | pest or weed control at 500 ppm (Phakopsora pachyrhizi)

CCN(C)C=Nc1cc(C)cc(Cc2ccc(F)c(Cl)c2)c1Cl [Compound 54, N′-(2-chloro-3-(3-chloro-4-fluorobenzyl)-5-methylphenyl)-N-ethyl-N-methylformimidamide]
≥ 70%: inhibition of growth at 300 ppm [1] | inhibition of growth at 300 ppm (Fusarium culmorum) | inhibition of growth at 300 ppm (Botrytis cinerea) | inhibition of growth at 300 ppm (Alternaria solani) | inhibition of growth at 300 ppm (Pyricularia oryzae [2]) | inhibition of growth at 300 ppm (Rhizoctonia solani) | pest or weed control at 500 ppm (Pyricularia oryzae [3]) | pest or weed control at 500 ppm (Phakopsora pachyrhizi)

CCN(C)C=Nc1cc(OC)cc(Cc2cccc(F)c2)c1C [Compound 277, N-ethyl-N′-(3-(3-fluorobenzyl)-5-methoxy-2-methylphenyl)-N-methylformimidamide]
≥ 70%: pest or weed control at 500 ppm (Pyricularia oryzae [3]) | pest or weed control at 500 ppm (Phakopsora pachyrhizi)

CCN(C)C=Nc1cc(Cl)cc(Cc2cccc(C)c2)c1C [Compound 94, N′-(5-chloro-2-methyl-3-(3-methylbenzyl)phenyl)-N-ethyl-N-methylformimidamide]
≥ 70%: inhibition of growth at 300 ppm [1] | inhibition of growth at 300 ppm (Colletotrichum capsici) | inhibition of growth at 300 ppm (Botrytis cinerea) | inhibition of growth at 300 ppm (Alternaria solani) | inhibition of growth at 300 ppm (Pyricularia oryzae [2]) | inhibition of growth at 300 ppm (Rhizoctonia solani) | pest or weed control at 500 ppm (Pyricularia oryzae [3]) | pest or weed control at 500 ppm (Phakopsora pachyrhizi)

CCN(C)C=Nc1cc(C)cc(Cc2ccc(Cl)cc2)c1C [Compound 224, N′-(3-(4-chlorobenzyl)-2,5-dimethylphenyl)-N-ethyl-N-methylformimidamide]
≥ 70%: inhibition of growth at 300 ppm [1] | inhibition of growth at 300 ppm (Fusarium culmorum) | inhibition of growth at 300 ppm (Colletotrichum capsici) | inhibition of growth at 300 ppm (Botrytis cinerea) | inhibition of growth at 300 ppm (Alternaria solani) | inhibition of growth at 300 ppm (Pyricularia oryzae [2]) | inhibition of growth at 300 ppm (Rhizoctonia solani) | pest or weed control at 500 ppm (Phakopsora pachyrhizi)

CCN(C)C=Nc1cc(C)cc(Cc2cccc(C)c2)c1Cl [Compound 17, N′-(2-chloro-5-methyl-3-(3-methylbenzyl)phenyl)-N-ethyl-N-methylformimidamide]
≥ 70%: inhibition of growth at 300 ppm [1] | inhibition of growth at 300 ppm (Fusarium culmorum) | inhibition of growth at 300 ppm (Colletotrichum capsici) | inhibition of growth at 300 ppm (Botrytis cinerea) | inhibition of growth at 300 ppm (Alternaria solani) | inhibition of growth at 300 ppm (Pyricularia oryzae [2]) | inhibition of growth at 300 ppm (Rhizoctonia solani) | pest or weed control at 500 ppm (Phakopsora pachyrhizi)

CCN(C)C=Nc1cc(Cl)cc(Cc2ccc(Br)cc2)c1C [Compound 125, N′-(3-(4-bromobenzyl)-5-chloro-2-methylphenyl)-N-ethyl-N-methylformimidamide]
≥ 70%: inhibition of growth at 300 ppm [1] | inhibition of growth at 300 ppm (Fusarium culmorum) | inhibition of growth at 300 ppm (Colletotrichum capsici) | inhibition of growth at 300 ppm (Botrytis cinerea) | inhibition of growth at 300 ppm (Alternaria solani) | inhibition of growth at 300 ppm (Pyricularia oryzae [2]) | inhibition of growth at 300 ppm (Rhizoctonia solani) | pest or weed control at 500 ppm (Phakopsora pachyrhizi)

CCN(C)C=Nc1cc(Cl)cc(N(C)c2ccccc2F)c1C [Compound 178, N′-(5-chloro-3-((2-fluorophenyl)(methyl)amino)-2-methylphenyl)-N-ethyl-N-methylformimidamide]
≥ 70%: inhibition of growth at 300 ppm (Botrytis cinerea) | inhibition of growth at 300 ppm (Alternaria solani) | inhibition of growth at 300 ppm (Pyricularia oryzae [2]) | inhibition of growth at 300 ppm (Rhizoctonia solani) | pest or weed control at 500 ppm (Pyricularia oryzae [3]) | pest or weed control at 500 ppm (Phakopsora pachyrhizi)

CCN(C)C=Nc1cc(F)cc(Nc2cc(F)cc(F)c2)c1C [Compound 77, N′-(3-((3,5-difluorophenyl)amino)-5-fluoro-2-methylphenyl)-N-ethyl-N-methylformimidamide]
≥ 70%: inhibition of growth at 300 ppm [1] | inhibition of growth at 300 ppm (Fusarium culmorum) | inhibition of growth at 300 ppm (Colletotrichum capsici) | inhibition of growth at 300 ppm (Botrytis cinerea) | inhibition of growth at 300 ppm (Alternaria solani) | inhibition of growth at 300 ppm (Pyricularia oryzae [2]) | inhibition of growth at 300 ppm (Rhizoctonia solani) | pest or weed control at 500 ppm (Phakopsora pachyrhizi)

CCN(C)C=Nc1cc(Cl)cc(N(C)c2cccc(Cl)c2)c1C [Compound 180, N′-(5-chloro-3-((3-chlorophenyl)(methyl)amino)-2-methylphenyl)-N-ethyl-N-methylformimidamide]
≥ 70%: inhibition of growth at 300 ppm (Alternaria solani) | pest or weed control at 500 ppm (Pyricularia oryzae [3])

CCN(C)C=Nc1cc(C)cc(Nc2ccc(Cl)cc2)c1Cl [Compound 59, N′-(2-chloro-3-((4-chlorophenyl)amino)-5-methylphenyl)-N-ethyl-N-methylformimidamide]
≥ 70%: inhibition of growth at 300 ppm [1] | inhibition of growth at 300 ppm (Fusarium culmorum) | inhibition of growth at 300 ppm (Colletotrichum capsici) | inhibition of growth at 300 ppm (Botrytis cinerea) | inhibition of growth at 300 ppm (Alternaria solani) | inhibition of growth at 300 ppm (Pyricularia oryzae [2]) | inhibition of growth at 300 ppm (Rhizoctonia solani) | pest or weed control at 500 ppm (Phakopsora pachyrhizi)

CCN(C)C=Nc1cc(C)cc(NCc2ccccc2C(F)(F)F)c1Cl [Compound 181, N′-(2-chloro-5-methyl-3-((2-(trifluoromethyl)benzyl)amino)phenyl)-N-ethyl-N-methylformimidamide]
≥ 70%: inhibition of growth at 300 ppm (Colletotrichum capsici) | inhibition of growth at 300 ppm (Botrytis cinerea) | inhibition of growth at 300 ppm (Alternaria solani) | inhibition of growth at 300 ppm (Pyricularia oryzae [2]) | inhibition of growth at 300 ppm (Rhizoctonia solani) | pest or weed control at 500 ppm (Pyricularia oryzae [3]) | pest or weed control at 500 ppm (Phakopsora pachyrhizi)
